Results taken from Sander's compilation of Henry's law constants (doi:10.1021/es00033a018).

Experiment: Henry solubility constant Hcp at 298.15 K (mol/(m3 Pa))
Conditions: reference: Wright et al. (1992)

Row | Structure (SMILES) | Henry solubility constant Hcp
1 | ClCC(Cl)(Cl)Cl [1,1,1,2-tetrachloroethane] | 0.004
2 | CC(Cl)(Cl)Cl [1,1,1-trichloroethane] | 0.0006
3 | ClC(Cl)C(Cl)Cl [1,1,2,2-tetrachloroethane] | 0.022
4 | ClCC(Cl)Cl [1,1,2-trichloroethane] | 0.011
5 | CC(Cl)CCl (stereo unspecified) [1,2-dichloropropane] | 0.0036
6 | ClC=CCCl [1,3-dichloropropene] | 0.0064
7 | BrCBr [dibromomethane] | 0.011
8 | ClCCl [dichloromethane] | 0.0039
9 | ClC(Cl)(Cl)Cl [tetrachloromethane] | 0.00029
10 | BrC(Br)Br [tribromomethane] | 0.024
11 | ClC=C(Cl)Cl [trichloroethene] | 0.0011
